Reference: patent publication US9040712B2, “Thiadiazole analogs thereof and methods for treating SMN-deficiency-related-conditions” (NOVARTIS AG, priority 2013, dated 2015)

tested on: SMN protein; test: cellular SMN ELISA (SMN protein elevation); format: cell-based; conditions: myoblast cell line derived from SMNdelta7 mouse model; 24 hours compound treatment; concentration range 100 pM-10 uM
How it was run: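 Myoblasts derived from the SMNdelta7 mouse model, 3000 cells/well, treated with compound (100 pM–10 uM) for 24 h, then lysed in modified RIPA buffer. SMN protein quantified by sandwich ELISA (anti-SMN mAb capture, rabbit polyclonal detection, HRP/TMB, 450 nm). Results given as fold activation over DMSO and EC50.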

| SMILES | EC50 [nM] | SMN Activity Fold (fold activation over DMSO control) [fold] |
| --- | --- | --- |
| Cc1nc(C)c(-c2ccc(-c3nnc(N(C)C4CC(C)(C)NC(C)(C)C4)s3)c(F)c2F)s1 [Example 59, 5-(4-(2,4-dimethylthiazol-5-yl)-2,3-difluorophenyl)-N-methyl-N-(2,2,6,6-tetramethylpiperidin-4-yl)-1,3,4-thiadiazol-2-amine] | 1500 | 2.69 |
| CN(c1nnc(-c2c(O)cc(-c3ccn(C)c(=O)c3)cc2OC(F)(F)F)s1)C1CC(C)(C)NC(C)(C)C1 [Example 60, 4-(3-hydroxy-4-(5-(methyl(2,2,6,6-tetra-methylpiperidin-4-yl)amino)-1,3,4-thiadiazol-2-yl)-5-(trifluoromethoxy)phenyl)-1-methylpyridin-2(1H)-one] | 53 | 2.69 |
| COc1cc(-c2cn[nH]c2)cc(F)c1-c1nnc(N(C)C2CC(C)(C)NC(C)(C)C2)s1 [Example 61, 5-(2-fluoro-6-methoxy-4-(1H-pyrazol-4-yl)phenyl)-N-methyl-N-(2,2,6,6-tetramethylpiperidin-4-yl)-1,3,4-thiadiazol-2-amine] | 95 | 2.36 |
| COc1cc(-c2cn[nH]c2)cc(F)c1-c1nnc(N2C[C@H]3CN(C)C[C@H]3C2)s1 [Example 62, 2-(2-fluoro-6-methoxy-4-(1H-pyrazol-4-yl)phenyl)-5-((3aR,6aS)-5-methylhexahydro-pyrrolo[3,4-c]pyrrol-2(1H)-yl)-1,3,4-thiadiazole] | 3640 | 2.01 |
| COc1cc(-c2cn[nH]c2)c(F)c(F)c1-c1nnc(N(C)C2CC(C)(C)NC(C)(C)C2)s1 [Example 63, 5-(2,3-difluoro-6-methoxy-4-(1H-pyrazol-4-yl)phenyl)-N-methyl-N-(2,2,6,6-tetramethyl-piperidin-4-yl)-1,3,4-thiadiazol-2-amine] | 47 | 3.13 |
| COc1ccc2c(c1)CCN(c1nnc(N(C)C3CC(C)(C)NC(C)(C)C3)s1)C2=O [Example 64, 6-methoxy-2-(5-(methyl(2,2,6,6-tetramethylpiperidin-4-yl)amino)-1,3,4-thiadiazol-2-yl)-3,4-dihydroisoquinolin-1(2H)-one] | 1620 | 2.51 |
| CN(c1nnc(-c2ccc(-n3cccn3)cc2Cl)s1)C1CC(C)(C)NC(C)(C)C1 [Example 65, 5-(2-chloro-4-(1H-pyrazol-1-yl)phenyl)-N-methyl-N-(2,2,6,6-tetramethylpiperidin-4-yl)-1,3,4-thiadiazol-2-amine] | 273 | 2.37 |
| CN(c1nnc(-c2ccc(-n3ccnn3)cc2Cl)s1)C1CC(C)(C)NC(C)(C)C1 [Example 66, 5-(2-chloro-4-(1H-1,2,3-triazol-1-yl)phenyl)-N-methyl-N-(2,2,6,6-tetramethylpiperidin-4-yl)-1,3,4-thiadiazol-2-amine] | 130 | 2.32 |
| CN(c1nnc(-c2ccc(-n3nccn3)cc2Cl)s1)C1CC(C)(C)NC(C)(C)C1 [Example 67, 5-(2-chloro-4-(2H-1,2,3-triazol-2-yl)phenyl)-N-methyl-N-(2,2,6,6-tetramethylpiperidin-4-yl)-1,3,4-thiadiazol-2-amine] | 159 | 2.45 |
| CN(c1nnc(-c2ccc(-n3cncn3)cc2Cl)s1)C1CC(C)(C)NC(C)(C)C1 [Example 68, 5-(2-chloro-4-(1H-1,2,4-triazol-1-yl)phenyl)-N-methyl-N-(2,2,6,6-tetramethylpiperidin-4-yl)-1,3,4-thiadiazol-2-amine] | 79 | 2.64 |
| CN(c1nnc(-c2ccc(-n3ccc(N)n3)cc2Cl)s1)C1CC(C)(C)NC(C)(C)C1 [Example 69, 5-(4-(3-amino-1H-pyrazol-1-yl)-2-chlorophenyl)-N-methyl-N-(2,2,6,6-tetramethylpiperidin-4-yl)-1,3,4-thiadiazol-2-amine] | 171 | 2.44 |
| CN1C[C@@H]2CN(c3nnc(-c4ccc(-n5ccnc5)cc4Cl)s3)C[C@@H]2C1 [Example 70, 2-(2-chloro-4-(1H-imidazol-1-yl)phenyl)-5-((3aR,6aS)-5-methylhexahydropyrrolo[3,4-c]pyrrol-2(1H)-yl)-1,3,4-thiadiazole] | 2570 | 2.17 |
| CN(c1nnc(-c2ccc(-n3ccnc3)cc2Cl)s1)C1CC(C)(C)NC(C)(C)C1 [Example 71, 5-(2-chloro-4-(1H-imidazol-1-yl)phenyl)-N-methyl-N-(2,2,6,6-tetramethylpiperidin-4-yl)-1,3,4-thiadiazol-2-amine] | 32 | 2.40 |
| CN(c1nnc(-c2ccc(-n3ccnc3)cc2F)s1)C1CC(C)(C)NC(C)(C)C1 [Example 72, 5-(2-fluoro-4-(1H-imidazol-1-yl)phenyl)-N-methyl-N-(2,2,6,6-tetramethylpiperidin-4-yl)-1,3,4-thiadiazol-2-amine] | 91 | 2.50 |
| COc1cc(-c2ccn[nH]2)ccc1-c1nnc(N(C)C2CC(C)(C)NC(C)(C)C2)s1 [Example 73, 5-(2-methoxy-4-(1H-pyrazol-5-yl)phenyl)-N-methyl-N-(2,2,6,6-tetramethylpiperidin-4-yl)-1,3,4-thiadiazol-2-amine] | 110 | 2.73 |
| COc1cc(-c2sc(C)nc2C)ccc1-c1nnc(N(C)C2CC(C)(C)NC(C)(C)C2)s1 [Example 74, 5-(4-(2,4-dimethylthiazol-5-yl)-2-methoxyphenyl)-N-methyl-N-(2,2,6,6-tetramethylpiperidin-4-yl)-1,3,4-thiadiazol-2-amine] | 85 | 2.64 |
| COc1cc(-c2cccnc2)ccc1-c1nnc(N(C)C2CC(C)(C)NC(C)(C)C2)s1 [Example 75, 5-(2-methoxy-4-(pyridin-3-yl)phenyl)-N-methyl-N-(2,2,6,6-tetramethylpiperidin-4-yl)-1,3,4-thiadiazol-2-amine] | 235 | 2.44 |
| CN(c1nnc(-c2ccc(-c3cn[nH]c3)cc2F)s1)C1CC(C)(C)NC(C)(C)C1 [Example 76, 5-(2-fluoro-4-(1H-pyrazol-4-yl)phenyl)-N-methyl-N-(2,2,6,6-tetramethylpiperidin-4-yl)-1,3,4-thiadiazol-2-amine] | 43 | 3.06 |
| COc1cc(-c2ccc(-c3nnc(N(C)C4CC(C)(C)NC(C)(C)C4)s3)c(OC)c2)ccn1 [Example 77, 5-(2-methoxy-4-(2-methoxypyridin-4-yl)phenyl)-N-methyl-N-(2,2,6,6-tetramethyl-piperidin-4-yl)-1,3,4-thiadiazol-2-amine] | 52 | 3.33 |
| COc1ccc(-c2ccc(-c3nnc(N(C)C4CC(C)(C)NC(C)(C)C4)s3)c(OC)c2)cn1 [Example 78, 5-(2-methoxy-4-(6-methoxypyridin-3-yl)phenyl)-N-methyl-N-(2,2,6,6-tetramethyl-piperidin-4-yl)-1,3,4-thiadiazol-2-amine] | 165 | 2.52 |
| CN1C[C@@H]2CN(c3nnc(-c4ccc(-c5cnn(C)c5)cc4Cl)s3)C[C@@H]2C1 [Example 79, 2-(2-chloro-4-(1-methyl-1H-pyrazol-4-yl)phenyl)-5-((3aR,6aS)-5-methylhexahydropyrrolo[3,4-c]pyrrol-2(1H)-yl)-1,3,4-thiadiazole] | 150 | 2.76 |
| CN1C[C@@H]2CN(c3nnc(-c4ccc(-c5cn[nH]c5)cc4Cl)s3)C[C@@H]2C1 [Example 80, 2-(2-chloro-4-(1H-pyrazol-4-yl)phenyl)-5-((3aR,6aS)-5-methylhexahydropyrrolo[3,4-c]pyrrol-2(1H)-yl)-1,3,4-thiadiazole] | 149 | 2.70 |
| CN1CC[C@@H]2CN(c3nnc(-c4ccc(-c5cn[nH]c5)cc4Cl)s3)C[C@@H]21 [Example 81, 2-(2-chloro-4-(1H-pyrazol-4-yl)phenyl)-5-((3aR,6aR)-1-methylhexahydropyrrolo[3,4-b]pyrrol-5(1H)-yl)-1,3,4-thiadiazole] | 1540 | 2.38 |
| CN(C)CC1CN(c2nnc(-c3ccc(-c4cn[nH]c4)cc3Cl)s2)CCO1 (stereo not drawn) [Example 82, 1-(4-(5-(2-chloro-4-(1H-pyrazol-4-yl)phenyl)-1,3,4-thiadiazol-2-yl)morpholin-2-yl)-N,N-dimethylmethanamine] | 994 | 2.50 |
| CN1CCC2(CCCN(c3nnc(-c4ccc(-c5cn[nH]c5)cc4Cl)s3)C2)C1 (stereo not drawn) [Example 83, 2-(2-chloro-4-(1H-pyrazol-4-yl)phenyl)-5-(2-methyl-2,7-diazaspiro[4.5]decan-7-yl)-1,3,4-thiadiazole] | 3280 | 2.59 |
| CN1C[C@@H]2CN(c3nnc(-c4ccc(-c5cn[nH]c5)cc4F)s3)C[C@@H]2C1 [Example 84, 2-(2-fluoro-4-(1H-pyrazol-4-yl)phenyl)-5-((3aR,6aS)-5-methylhexahydropyrrolo[3,4-c]pyrrol-2(1H)-yl)-1,3,4-thiadiazole] | 193 | 2.11 |
| COc1cc(-c2cnn(C)c2)ccc1-c1nnc(N2CC3(CCCNC3)C2)s1 [Example 85, 2-(2-methoxy-4-(1-methyl-1H-pyrazol-4-yl)phenyl)-5-(2,6-diazaspiro[3.5]nonan-2-yl)-1,3,4-thiadiazole] | 282 | 2.22 |
